Measured values reported in US20200046746A1, “ANTI-AGING COMPOSITIONS AND METHODS FOR USING SAME” (Prescient Pharma LLC, priority 2015, published 2020).
Several values for one entry are separate records, joined by “and”; a condition that tells them apart may be missing. Equal values may be shown once.

Experiments:
[1] = test system: normal human colon fibroblast cell line CCD 841 CoN (CRL-1790, ATCC); experiment: Senescence beta-galactosidase staining of aged normal human fibroblasts (Example 1); assay type: cell-based; conditions: lithium carbonate 0.15 μM and/or glycyrrhizic acid 0.25 mM; for effect on beta-galactosidase staining of the fibroblasts in comparison with non-treated controls or monotherapy / % green stained (average green area with and without background subtraction) / % green staining (green stained area of total original area) / visible positive beta-Galactosidase staining: 48 hours; for % green staining: per flask, 48 hours treatment, higher values = more aged cells; for % green stained (average green area with and without background subtraction) / % green staining (green stained area of total original area): per image, substance assigned through Table 3 (Area = Image #); for visible positive beta-Galactosidase staining: visual, light microscope 100× magnification
Description: Aging-associated beta-galactosidase is widely used as a biomarker of senescence. Here we investigated senescence-associated-beta-galactosidase activity of human colon fibroblast cells by visual assessment.
In this Example, the effect of treatment with lithium and glycyrrhizic acid separately, and as a fixed combination, was evaluated on normal human colon fibroblast cell line CCD 841 CoN (CRL-1790, ATCC).
Group 4 (flasks 10-12, control), the medium was changed to fresh compete EMEM medium without drugs as controls.
FIGS. 1-4 show pictures of the staining results for each of the groups, respectively.
Digital pictures showing the staining results for each of the 12 flasks were then independently examined and scored for percentage of area of green (positive) staining based on pixels, with and without background subtraction.
Higher values reflect more intensive green staining which corresponds to more aged cells.

[2] = test system: wild-type N2 Bristol strain of C. elegans; experiment: C. elegans longevity study (Example 4); assay type: in vivo; conditions: for longevity and survival (longevity effect): wild type C. elegans, lithium carbonate 0.15 or 15 μM
Description: In this fourth Example, the effect of treatment with lithium and Glycyrrhizic acid separately, and as a fixed combination, was further evaluated on the wild-type N2 Bristol strain of C. elegans. Worm stocks were maintained on nematode growth medium (NGM) dishes containing 10 μg/mL cholesterol (Cat. No. C8667; Sigma-Aldrich, Saint Louis, Mo., USA). Dishes were seeded with OP50 Escherichia coli as a food source. Twelve polystyrene petri dishes (35 mm diameter) were prepared by filling with NGM agar containing […] cholesterol, and 25 μM 5-Fluoro-2′-deoxyuridine to suppress reproduction (FUDR; Cat. No. F0503; Sigma-Aldrich, Saint Louis, Mo., USA). The dishes were seeded with OP50 Escherichia coli as a food source. Duplicate dishes were used for each group. The treatment drug was dissolved in deionized water, and added to the dishes for the groups as explained below: […] Group #5: Glycyrrhizic acid in concentration of 0.25 mM. Group #6: untreated (control). NGM-agar treatment plates containing cholesterol (10 μg/mL) and 25 μM 5-Fluoro-2′-deoxyuridine (FUDR; Cat. No. F0503; Sigma-Aldrich, Saint Louis, Mo., USA) to suppress reproduction. […] The survival data for the various groups are also depicted in FIG. 17.

[3] = lithium carbonate 0.15 μM, in the combination plus glycyrrhizic acid 0.25 mM
[4] = lithium carbonate 15 μM, in the combination plus glycyrrhizic acid 0.25 mM

Compound: O=C([O-])[O-].[Li+].[Li+] [Li, lithium carbonate]
- effect on beta-galactosidase staining of the fibroblasts in comparison with non-treated controls or monotherapy [1]: did not appear to have significant effect
- % green staining [1]: 6.25% and 2.83% and 5.24%
- % green stained (average green area with and without background subtraction) [1]: 2.828% and 6.253% and 5.243%
- % green staining (green stained area of total original area) [1]: 2.83% and 6.25% and 5.24%
- visible positive beta-Galactosidase staining [1]: stained positively
- Age in days at % mortality 100% ([2]; lithium carbonate 0.15 μM): 19 days
- Age in days at % mortality 25% [2, 3]: 13 days
- Age in days at % mortality 50% [2, 3]: 15 days
- Age in days at % mortality 75% [2, 3]: 16 days
- Age in days at % mortality 90% [2, 3]: 18 days
- Restricted mean Days [2, 3]: 14.88 days
- Age in days at % mortality 100% ([2]; lithium carbonate 15 μM): 19 days
- Age in days at % mortality 25% [2, 4]: 14 days
- Age in days at % mortality 50% [2, 4]: 15 days
- Age in days at % mortality 75% [2, 4]: 16 days
- Age in days at % mortality 90% [2, 4]: 18 days
- Restricted mean Days [2, 4]: 14.56 days
- longevity and survival (longevity effect) ([2]; glycyrrhizic acid 0.25 mM): not observed

Compound: CC1(C)[C@@H](O[C@@H]2O[C@@H](C(=O)O)[C@H](O)[C@@H](O)[C@@H]2O[C@H]2O[C@@H](C(=O)O)[C@H](O)[C@@H](O)[C@@H]2O)CC[C@]2(C)[C@@H]1CC[C@@]1(C)[C@H]2C(=O)C=C2[C@H]3C[C@@](C)(C(=O)O)CC[C@@]3(C)CC[C@@]21C [G acid, (3β,20β)-20-carboxy-11-oxo-30-norolean-12-en-3-yl 2-O-β-D-glucopyranuronosyl-α-D-glucopyranosiduronic acid]
- effect on beta-galactosidase staining of the fibroblasts in comparison with non-treated controls or monotherapy [1]: did not appear to have significant effect
- % green staining [1]: 9.1% and 10.03% and 6.91%
- % green stained (average green area with and without background subtraction) [1]: 6.908% and 9.104% and 10.03%
- % green staining (green stained area of total original area) [1]: 6.91% and 9.1% and 10.03%
- visible positive beta-Galactosidase staining [1]: stained positively
- Age in days at % mortality 25% ([2]; glycyrrhizic acid 0.25 mM): 14 days
- Age in days at % mortality 50% ([2]; glycyrrhizic acid 0.25 mM): 16 days
- Age in days at % mortality 75% ([2]; glycyrrhizic acid 0.25 mM): 18 days
- Age in days at % mortality 90% ([2]; glycyrrhizic acid 0.25 mM): 19 days
- Age in days at % mortality 100% ([2]; glycyrrhizic acid 0.25 mM): 20 days
- Restricted mean Days ([2]; glycyrrhizic acid 0.25 mM): 16.06 days
- longevity and survival (longevity effect) ([2]; glycyrrhizic acid 0.25 mM): not observed
